Laboratory results as given in the NIST ThermoML archive (doi:10.1016/j.jct.2018.02.013).
Numbers after ± are expanded uncertainties.

How the values were obtained:
[1] = 101.33 kPa, Liquid; for thermal conductivity: transient hot wire; for mass density: Vibrating tube method; for viscosity: Cone and plate viscometry; for electrical conductivity: Direct current cell with electrodes
[2] = molar heat capacity at constant pressure; settings: 101.33 kPa, Liquid, Small sample (50 mg) DSC
[3] = wn = mass fraction of the nth substance listed; settings: 101 kPa, Liquid, w2 = 0.1415; for mass density: Vibrating tube method; for viscosity: Cone and plate viscometry; for thermal conductivity: transient hot wire; for electrical conductivity: Direct current cell with electrodes
[4] = molar heat capacity at constant pressure; wn = mass fraction of the nth substance listed; settings: 101 kPa, Liquid, Small sample (50 mg) DSC, w2 = 0.1415

CCCCCCCCCC(=O)[O-].CCCCCCCCCCCCCC[P+](CCCCCC)(CCCCCC)CCCCCC [trihexyltetradecylphosphonium decanoate]
Settings	electrical conductivity [S/m]	mass density [kg/m3]	molar heat capacity at constant pressure [J/K/mol]	thermal conductivity [W/m/K]	viscosity [mPa·s]
[1], 278.09 K	–	–	–	0.1601 ± 0.0093	–
[1], 288 K	–	–	–	0.1591 ± 0.0091	–
[1], 293.15 K	–	880.4 ± 1.9	–	–	–
[1], 293.2 K	–	–	–	–	546.3 ± 41
[1], 297.79 K	–	–	–	0.1571 ± 0.0097	–
[1], 298.15 K	–	877.3 ± 1.9	–	–	–
[1], 298.2 K	–	–	–	–	409.8 ± 30
[1], 298.8 K	0.00174 ± 9e-05	–	–	–	–
[1], 303.15 K	–	874.6 ± 1.9	–	–	–
[1], 303.2 K	–	–	–	–	314.5 ± 22
[1], 303.8 K	0.00239 ± 0.00011	–	–	–	–
[1], 308 K	0.00297 ± 0.00013	–	–	–	–
[1], 308.16 K	–	–	–	0.1545 ± 0.01	–
[1], 308.2 K	–	–	–	–	242.5 ± 17
[1], 313.15 K	–	868.1 ± 1.8	–	–	–
[1], 313.2 K	–	–	–	–	189.8 ± 13
[1], 313.8 K	0.00395 ± 0.00017	–	–	–	–
[1], 318.13 K	–	–	–	0.1542 ± 0.01	–
[1], 318.2 K	–	–	–	–	151.3 ± 9.8
[1], 319.6 K	0.00506 ± 0.00023	–	–	–	–
[1], 323.15 K	–	862 ± 1.8	–	–	–
[1], 323.2 K	0.00631 ± 0.00028	–	–	–	121.8 ± 7.7
[1], 326.82 K	–	–	–	0.1535 ± 0.0098	–
[1], 328.2 K	0.00763 ± 0.00033	–	–	–	99.78 ± 6.2
[1], 333.15 K	–	855.7 ± 1.8	–	–	–
[1], 333.2 K	–	–	–	–	82.68 ± 5.1
[1], 333.4 K	0.00949 ± 0.00041	–	–	–	–
[1], 338.2 K	–	–	–	–	68.76 ± 4.2
[1], 338.3 K	0.0118 ± 0.0005	–	–	–	–
[1], 338.5 K	–	–	–	0.1515 ± 0.011	–
[1], 343.15 K	–	849.7 ± 1.8	–	–	–
[1], 343.2 K	–	–	–	–	58.07 ± 3.6
[1], 343.5 K	0.0137 ± 0.00058	–	–	–	–
[1], 347.3 K	–	–	–	0.1502 ± 0.012	–
[1], 348.2 K	–	–	–	–	49.28 ± 3
[1], 349.7 K	0.0171 ± 0.00072	–	–	–	–
[1], 353.15 K	–	843.3 ± 1.8	–	–	–
[1], 353.2 K	–	–	–	–	42.21 ± 2.6
[1], 358.2 K	–	–	–	–	36.41 ± 2.2
[1], 358.21 K	–	–	–	0.1493 ± 0.011	–
[1], 363.15 K	–	837.4 ± 1.8	–	–	–
[1], 363.2 K	–	–	–	–	31.71 ± 1.9
[1], 368.2 K	–	–	–	–	27.59 ± 1.7
[2], 293.15 K	–	–	1181.2 ± 73	–	–
[2], 298.15 K	–	–	1191.7 ± 73	–	–
[2], 303.15 K	–	–	1199.5 ± 74	–	–
[2], 308.15 K	–	–	1209.3 ± 75	–	–
[2], 313.15 K	–	–	1217.2 ± 75	–	–
[2], 318.15 K	–	–	1221.8 ± 75	–	–
[2], 323.15 K	–	–	1230.3 ± 76	–	–
[2], 328.15 K	–	–	1238.2 ± 77	–	–
[2], 333.15 K	–	–	1246 ± 77	–	–
[2], 338.15 K	–	–	1250.6 ± 77	–	–
[2], 343.15 K	–	–	1264.4 ± 78	–	–
[2], 348.15 K	–	–	1269.6 ± 78	–	–
[2], 353.15 K	–	–	1278.8 ± 79	–	–
[2], 358.15 K	–	–	1285.3 ± 79	–	–
[2], 363.15 K	–	–	1296.5 ± 80	–	–

CCCCCCCCCC(=O)[O-].CCCCCCCCCCCCCC[P+](CCCCCC)(CCCCCC)CCCCCC [trihexyltetradecylphosphonium decanoate] + O
Settings	electrical conductivity [S/m]	mass density [kg/m3]	molar heat capacity at constant pressure [J/K/mol]	thermal conductivity [W/m/K]	viscosity [mPa·s]
[3], 298.15 K	–	899.1 ± 1.9	–	–	–
[3], 298.2 K	–	–	–	–	91.87 ± 5.7
[3], 298.55 K	–	–	–	0.1861 ± 0.0089	–
[3], 299.2 K	0.03 ± 0.0014	–	–	–	–
[3], 303.15 K	–	895.8 ± 1.9	–	–	–
[3], 303.2 K	–	–	–	–	76.66 ± 4.7
[3], 303.6 K	0.0369 ± 0.0016	–	–	–	–
[3], 307.51 K	–	–	–	0.1849 ± 0.0085	–
[3], 308.2 K	–	–	–	–	64.23 ± 3.9
[3], 308.8 K	0.0436 ± 0.0019	–	–	–	–
[3], 313.15 K	–	889 ± 1.9	–	–	–
[3], 313.2 K	0.0524 ± 0.0022	–	–	–	53.34 ± 3.3
[3], 317.84 K	–	–	–	0.1829 ± 0.0095	–
[3], 318.2 K	–	–	–	–	45 ± 2.8
[3], 318.8 K	0.0639 ± 0.0027	–	–	–	–
[3], 323.15 K	–	882.3 ± 1.8	–	–	–
[3], 323.2 K	–	–	–	–	37.98 ± 2.3
[3], 323.6 K	0.0733 ± 0.0031	–	–	–	–
[3], 328.2 K	–	–	–	–	32.86 ± 2
[3], 328.68 K	–	–	–	0.1809 ± 0.01	–
[3], 328.8 K	0.0865 ± 0.0036	–	–	–	–
[3], 333.15 K	–	875.4 ± 1.8	–	–	–
[3], 333.2 K	0.1 ± 0.0042	–	–	–	28.28 ± 1.7
[3], 337.66 K	–	–	–	0.1799 ± 0.0099	–
[3], 338.2 K	–	–	–	–	24.62 ± 1.5
[3], 338.8 K	0.118 ± 0.0049	–	–	–	–
[3], 343.15 K	–	868.2 ± 1.8	–	–	–
[3], 343.2 K	–	–	–	–	21.4 ± 1.3
[3], 343.8 K	0.132 ± 0.0055	–	–	–	–
[3], 347.13 K	–	–	–	0.1785 ± 0.011	–
[3], 348.2 K	–	–	–	–	18.91 ± 1.1
[3], 348.9 K	0.156 ± 0.0065	–	–	–	–
[3], 353.15 K	–	860.8 ± 1.8	–	–	–
[3], 353.2 K	–	–	–	–	17.1 ± 1
[3], 358.2 K	–	–	–	0.1762 ± 0.01	15.4 ± 0.94
[3], 363.15 K	–	853.7 ± 1.8	–	–	–
[3], 363.2 K	–	–	–	–	13.95 ± 0.85
[3], 368.2 K	–	–	–	–	12.08 ± 0.74
[4], 298.15 K	–	–	313.81 ± 19	–	–
[4], 303.15 K	–	–	319.48 ± 20	–	–
[4], 308.15 K	–	–	323.73 ± 20	–	–
[4], 313.15 K	–	–	326.79 ± 20	–	–
[4], 318.15 K	–	–	328.54 ± 20	–	–
[4], 323.15 K	–	–	332.14 ± 21	–	–
[4], 328.15 K	–	–	335.3 ± 21	–	–
[4], 333.15 K	–	–	338.57 ± 21	–	–
[4], 338.15 K	–	–	341.41 ± 21	–	–
[4], 343.15 K	–	–	344.47 ± 21	–	–
[4], 348.15 K	–	–	348.72 ± 21	–	–
[4], 353.15 K	–	–	351.99 ± 22	–	–
[4], 358.15 K	–	–	355.6 ± 22	–	–
[4], 363.15 K	–	–	360.72 ± 22	–	–
